Data reported in US20040138826A1, “Experimental design and data analytical methods for detecting and characterizing interactions and interaction thresholds on fixed ratio rays of polychemical mixtures and subsets thereof” (priority 2002, published 2004).
Like-named read-outs stand apart in the source and are kept apart here.

Tests used:
[1] = system: healthy adult rats; details: rats; for Mean Motor Activity Response: single chemical
From the text: To motivate the use of these fixed-ratio mixture ray designs consider a study which examines exposure to environmentally relevant pesticides. The OP pesticides chosen for study, based on usage patterns (i.e. pesticides used on same or similar crops) and market share (i.e. highest volume pesticides), were acephate, diazinon, chlorpyrifos, dimethoate, and malathion. Motor activity, a count of the number of passes made across a central area, was used to assess toxicity in healthy adult rats. A full five-pesticide fixed-ratio ray, given by (0.040:0.002:0.031:0.102:0.825) for (acephate:diazinon:chlorpyrifos:dimethoate:malathion), was chosen based on relative dietary exposure estimates of each chemical as projected by the U.S. EPA Dietary Exposure Evaluation Model (DEEM).
Single chemical data were collected approximately 18 months prior to the data along the full fixed-ration ray.
Fixed-ratio ray designs were chosen to study interactions among combinations of multiple pesticides. The pesticides chosen for these studies, based on usage patterns (i.e., pesticides used on the same or similar crops) and market share (i.e., highest volume pesticides), were acephate, diazinon, chlorpyrifos, dimethoate, and malathion. Motor activity, a count of the number of passes made across a central area, was chosen to assess the toxicity of these pesticides in healthy adult rats. The fixed-ratio ray under study was chosen based on the relative dietary exposure estimates of each chemical as projected by the U.S. EPA Dietary Exposure Evaluation Model (DEEM) and is given by (0.040:0.002:0.031:0.102:0.825) for acephate, diazinon, chlorpyrifos, dimethoate, and malathion respectively.
The five-pesticide study described in the introduction is used to illustrate the sample size and power methods developed in Section 3. Due to the high potential of aggregate exposure to OP pesticides, researchers were initially interested in testing the hypothesis of additivity, given in (5), along the full five-pesticide fixed-ratio ray, given by (0.040:0.002:0.031:0.102:0.825) for ([…]), that represents relative dietary exposure estimates. Single chemical data were collected and used to estimate an additivity model along the ray (analysis not shown). Since, the motor activity response is a count variable it was assumed that V(m)=m and the log link function (McCullagh and Nelder, 1989) was used to fit the generalized linear additivity model described in Section 2. […] Eighty-six animals were considered. Fourteen animals were evaluated in the control group. Twelve animals each were evaluated at 10, 55, 100, 200, 300, and 450 mg/kg. Summary statistics for the single chemical and mixture data are provided in the appendix.
The five-pesticide study described in the introduction is used to illustrate the design methodology developed in the following sections. Due to the high potential for aggregate exposure to OP pesticides, researchers were initially interested in testing the hypothesis of additivity, given in (4), along the full five-pesticide fixed-ratio ray, given by (0.040:0.002:0.031:0.102:0.825) for (acephate:diazinon:chlorpyrifos:dimethoate:malathion). Since motor activity response is a count variable, it was assumed that V(μ)=μ and the log link function (McCullagh and Nelder, 1989) was used to fit the generalized linear additivity model given in (1). […] Eighty-six animals were considered. Fourteen animals were evaluated in the control group. Twelve animals each were evaluated at 10, 55, 100, 200, 300, and 450 mg/kg.

[2] = system: rats; details: single chemical data, rats
From the text: The endpoint of interest is neurotoxicity in rats as measured by a gait score dichotomized to indicate presence or absence of a gait abnormality (i.e., incoordination, loss of balance, etc.). The fixed-ratio ray under study was chosen based on the relative dietary exposure estimates of each chemical as projected by the U.S. EPA Dietary Exposure Evaluation Model (DEEM) and is given by (0.040:0.002:0.031:0.825:0.102) for ACE, DIA, CPF, MAL, DIM, respectively. […] (Note: Such a strategy can be extended for identifying the impact of the unidentified fraction in a complex mixture.)
The biological endpoint of interest is an indicator of neurotoxicity based on evidence of the presence or absence of a gait abnormality (Moser, 1995). In order to appropriately constrain the probability of a response to be between 0 and 1, a logit link function was used, i.e., g(μ)=log(μ/(1−μ)). It was assumed throughout that the variance changes as a binomial random variable such that Var(Y)=τμ(1−μ) (e.g., McCullagh and Nelder, 1989).
The resulting mixture experiment consisted of a vehicle control (n=14), ‘positive controls’ for ACE alone (6 and 30 mg/kg; n=6, 14, respectively), CPF alone (10, 20, 30 mg/kg; n=6, 8, 6, respectively), DIAZ alone (50 and 125 mg/kg; n=6, 14, respectively), MAL alone (350 mg/kg; n=14), DIM alone (10, 25, 50 mg/kg; n=6, 8, 6, respectively), and six total dose mixture concentrations (10, 55, 100, 200, 300 and 450 mg/kg; n=12 rats per dose group for a total of 72 rats exposed to a mixture of the chemicals) at a fixed mixing ratio ray of (0.040:0.002:0.031:0.825:0.102) for (ACE:DIA:CPF:MAL:DIM). Similarly, the design for a second fixed-ratio ray was based on a reduced number of the pesticides (omitting MAL) with the remaining pesticides at the same relative proportions as in the ‘full’ mixture study. The experiment consisted of a vehicle control (n=8), positive controls (n=8 per group) for ACE (30 mg/kg), CPF (20 mg/kg), DIA (125 mg/kg), and DIM (25 mg/kg), and six total dose mixture concentrations (1.75, 9.6, 17.5, 35, 52.5, and 78.8 mg/kg; n=12 rats per dose group) at a fixed mixing ratio ray of (0.229:0.011:0.177:0.583) for (ACE:DIA:CPF:DIM). Casey et al (2003a,b) describe the motor activity data in the mixture of these five pesticides.

[3] = system: female CD-1 mice; assay: Liver damage by serum sorbitol dehydrogenase (SDH) after 14 days oral gavage of trihalomethane DBPs; details: for Estimate of slope parameter γi, additivity model for SDH response: generalized linear model with power link, λ = 0.5, single chemical data only, female CD-1 mice, 14 days oral gavage; for Mean SDH (STD): positive control
Protocol: The mixture selected for the study used to illustrate the methodology proposed here is that of four trihalomethanes formed as disinfection by-products (DBPs) when water is chlorinated. […] The endpoint of interest is liver damage, as measured by serum sorbitol dehydrogenase (SDH) levels in female CD-1 mice after 14 days of exposure by oral gavage. Seven separate experiments were conducted: four single chemical studies and three mixture studies. A more complete description of the experimental methods is provided in Gennings, et al. (1997; 2000). […] The fixed mixing ratio of interest is associated with the chlorination process of disinfection (McDonald et al., 1999). The purpose of this study was to determine if the four DBPs combine additively, i.e., with no interaction.
The data used to illustrate the methodology developed in the following sections involves the combination of four chemicals, which are disinfection by-products in drinking water. Summary statistics for the single chemical data are provided in Gennings et al. (1997, 2000). A generalized linear model with a power link function, [formula]
After the single chemical studies were completed, three mixture studies were conducted. […] In order to verify that the dose-response relationship was consistent across the different studies, the additivity model given in (1) was used to predict the response for each of the positive control groups. […] The p-value is associated with the Wald-type test for equivalence of the two means.
The objective of this paper is to develop a method for testing for departure from additivity when the single chemical data cannot be used to describe the no interaction case. The mixture data of interest are assumed to result from a fixed-ratio ray design.

[4] = system: normal human epidermal keratinocytes (NHEK); details: for LD50 (estimated): Example 6; for LD50 (50% cell killing in individual cytotoxicity assays): predetermined, Example 5; for Sample Mean (% viability): single metal, 24 hr
Protocol: Cells and culture conditions. Cryopreserved, pooled normal human epidermal keratinocytes (NHEK) were purchased from the Clonetics Corp. (San Diego, Calif.). NHEK cells were grown in defined Keratinocyte Growth Medium-KGM™ (Clonetics).
Cytotoxicity analyses. For toxicity studies, cells were plated at a density of 2,500 cells/cm^2 in 6-well plastic tissue culture plates and grown for 24 hr before metal treatment. Triplicate wells of cells were treated with increasing concentrations of As, Cr, Cd, Pb, or a mixture of the four metals for 24 hr. Concentrations used for As and Cr were 0.3, 1, 3, 10 , and 100 mM. The Cr stock was made by mixing a 1:1 ratio of trivalent and hexavalent chromium. Cd and Pb were administered at 3, 10, 30, 100, and 300 mM. […] The concentrations of these three metals in the 1× mixture solution was 7.7 mM As, 4.9 mM Cr, 6.1 mM Cd. […] This 1× solution was serially diluted at a 1:3 ratio to get 0.333, 0.111, 0.037, 0.0123, 0.004, and 0.0014 dilution groups. Double deionized water was used as the vehicle control in all cases. After exposure to the individual metals or metal mixture, cells were refed with fresh metal-free KGM medium and incubated for 3 days prior to viability analysis by the MTT assay.
MTT assay. The MTT assay was carried out using a modification of the method of Mosmann (1983). MTT was dissolved at 5 mg/ml in 1× PBS [phosphate-buffered saline]. This stock solution was filtered through a […] and stored at 4° C. Immediately before use, the stock solution was diluted to 0.5 mg/ml with serum-free KGM to make a working solution. Working solution (1 ml) was added to each well of cells after aspiration of medium. Cells were incubated at 37° C. for 3 hr, after which time, the MTT was removed by aspiration. Cells were subsequently lysed by addition of 0.5 ml of dimethyl sulfoxide (DMSO). The absorbence at 550 nm of samples as well as a DMSO blank was read on a Microplate Autoreader (Bio-Tek Instruments, Inc, Winooski, Vt.). The absorbance of the DMSO blank was subtracted from all values. All absorbance values were standardized to the water vehicle control.
The methodology introduced in this paper is illustrated with cytotoxicity data obtained from assessing interactions among arsenic (As), cadmium (Cd), chromium (Cr), and lead (Pb) in human keratinocytes. The experimental data were obtained from Ray Yang and colleagues at Colorado State University. The endpoint of interest is the percent viability of treated NHEK cells using the MTT assay. […] This 1× solution was serially diluted at a 1:3 ratio to get 0.333, 0.111, 0.037, 0.0123, 0.004, and 0.0014 dilution groups. Double deionized water was used as the vehicle control in all cases.
After exposure to individual metals or metal exposure, cells were refed with fresh metal-free KGM medium and incubated for 3 days prior to viability analysis by the MTT assay. Details of the experimental protocol and methods are described elsewhere (24, 1) and are not included here.

[5] = 1.52 mM/kg, mixture study = 0.05 total dose
[6] = 1.52 mM/kg, mixture study = 1.5 total dose
[7] = 1.52 mM/kg, mixture study = 3.0 total dose

For `COP(=O)(NC(C)=O)SC` (centres unmarked) [Acephate, acephate], the “Threshold Estimate” value ([1]; dose threshold for motor activity, threshold additivity model, SAR analysis) was 6.30 mg/kg, the “Mean Motor Activity Response” value ([1]; dose 3 mg/kg) was 200.13 and the “Mean Motor Activity Response” value ([1]; dose 10 mg/kg) was 165.88. The “Mean Motor Activity Response” value ([1]; dose 30 mg/kg) was 108.75, the “Mean Motor Activity Response” value ([1]; dose 60 mg/kg) was 58.25 and the “Mean Motor Activity Response” value ([1]; dose 120 mg/kg) was 33.25. The “effect when given alone on gait abnormality” value [2] was “significant effect on a gait abnormality”.

For `ClC(Cl)Br` [BDCM, bromodichloromethane], the “Estimate of slope parameter γi, additivity model for SDH response” value (“Estimate of slope parameter γi” for short) [3] was 3.567, the “Mean SDH (STD)” value [3, 5] was 107.3 (97.5) and the “Mean SDH (STD)” value [3, 6] was 56.0 (17.4). For the same molecule, the “Mean SDH (STD)” value [3, 7] was 48.8 (23.3).

For `ClC(Br)Br` [CDBM, chlorodibromomethane], the “Estimate of slope parameter γi” value [3] was 3.833, the “Mean SDH (STD)” value ([3]; 0.76 mM/kg, mixture study = 0.05 total dose) was 38.0 (11.2) and the “Mean SDH (STD)” value ([3]; 0.76 mM/kg, mixture study = 1.5 total dose) was 28.1 (6.7). For the same molecule, the “Mean SDH (STD)” value ([3]; 0.76 mM/kg, mixture study = 3.0 total dose) was 19.3 (3.6).

In the case of `BrC(Br)Br` [CHBr3, bromoform], the “Estimate of slope parameter γi” value [3] is reported as 2.441, the “Mean SDH (STD)” value [3, 5] is reported as 64.0 (27.8) and the “Mean SDH (STD)” value [3, 6] is reported as 56.0 (24.8). The “Mean SDH (STD)” value [3, 7] was 86.4 (89.2).

In the case of `ClC(Cl)Cl` [CHCl3, chloroform], the “Estimate of slope parameter γi” value [3] is reported as 1.538, the “Mean SDH (STD)” value [3, 5] is reported as 63.1 (34.9) and the “Mean SDH (STD)” value [3, 6] is reported as 46.6 (21.5). The “Mean SDH (STD)” value [3, 7] was 24.3 (5.8).

For `[Cl][Cd][Cl]` [Cadmium, cadmium chloride], the “LD50 (estimated)” value [4] was 6.1 µM, the “LD50 (50% cell killing in individual cytotoxicity assays)” value [4] was 6.1 mM and the “Sample Mean (% viability)” value ([4]; dose 3 (mM)) was 92.6 % viability. The “Sample Mean (% viability)” value ([4]; dose 10 (mM)) was 51.9 % viability, the “Sample Mean (% viability)” value ([4]; dose 30 (mM)) was 20.2 % viability and the “Sample Mean (% viability)” value ([4]; dose 100 (mM)) was 3.8 % viability. The “Sample Mean (% viability)” value ([4]; dose 300 (mM)) was 4.6 % viability.

In the case of `[Cr]` [Chromium], the “LD50 (estimated)” value [4] is reported as 4.9 µM, the “LD50 (50% cell killing in individual cytotoxicity assays)” value [4] is reported as 4.9 mM and the “Sample Mean (% viability)” value ([4]; dose 0.3 (mM)) is reported as 105.1 % viability. For the same molecule, the “Sample Mean (% viability)” value ([4]; dose 1.0 (mM)) was 99.7 % viability, the “Sample Mean (% viability)” value ([4]; dose 3 (mM)) was 79.8 % viability and the “Sample Mean (% viability)” value ([4]; dose 10 (mM)) was 23.9 % viability. For the same molecule, the “Sample Mean (% viability)” value ([4]; dose 30 (mM)) was 6.6 % viability.

In the case of `CC(=O)[O-].CC(=O)[O-].[Pb+2]` [Lead, lead acetate], the “LD50 (estimated)” value [4] is reported as 100 µM, the cell killing ([4]; individual cytotoxicity assay) is reported as “unable to get complete killing at any dose tested” and the “Sample Mean (% viability)” value ([4]; dose 3 (mM)) is reported as 95.5 % viability. For the same molecule, the “Sample Mean (% viability)” value ([4]; dose 10 (mM)) was 91.0 % viability, the “Sample Mean (% viability)” value ([4]; dose 30 (mM)) was 98.8 % viability and the “Sample Mean (% viability)” value ([4]; dose 100 (mM)) was 93.7 % viability. The “Sample Mean (% viability)” value ([4]; dose 300 (mM)) was 28.9 % viability.
